Experimental data published in patent US11919883B2, “Metalloenzyme inhibitor compounds” (Ji Xing Pharmaceuticals Hong Kong Limited, priority 2016, dated 2024).

Experiments:
[1] = molecular target: T1, recombinant human CYP11B2 (Homo sapiens, UniProt P19099); test: CYP11B2 enzyme assay, enzyme enriched microsomes from V79-4 cells, aldosterone by LC-MS; assay type: biochemical; details: IC50 ranges; run at Km of 11-deoxycorticosterone; read-out: hCYP11B2 IC50
T1 construct: made in house; host or cells: V79-4 cells (enzyme enriched microsomal fraction of cell lysates)
T1 sequence (P19099 25-503): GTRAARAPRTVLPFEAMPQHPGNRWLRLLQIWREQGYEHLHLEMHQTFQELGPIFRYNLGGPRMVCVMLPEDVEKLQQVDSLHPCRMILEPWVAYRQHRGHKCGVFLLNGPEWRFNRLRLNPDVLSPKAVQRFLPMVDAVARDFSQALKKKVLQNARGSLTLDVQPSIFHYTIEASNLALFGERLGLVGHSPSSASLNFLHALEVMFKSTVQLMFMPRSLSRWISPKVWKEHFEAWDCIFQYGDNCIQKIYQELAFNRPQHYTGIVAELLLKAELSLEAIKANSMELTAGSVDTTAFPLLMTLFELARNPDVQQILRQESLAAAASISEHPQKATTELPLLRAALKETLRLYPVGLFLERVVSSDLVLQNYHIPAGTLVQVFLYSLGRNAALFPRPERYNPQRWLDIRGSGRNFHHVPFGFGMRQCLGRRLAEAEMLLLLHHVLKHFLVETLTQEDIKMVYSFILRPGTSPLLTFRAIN
Procedure: (§1) An enzyme enriched microsomal fraction was prepared from cellular lysates and subsequently used as the enzyme source for determining inhibitor IC50s. […] Enzyme assays for inhibitor screening employed CYP11B2 and CYP11B1 enzyme enriched microsomes and were run at the Km of the respective substrates. Products of the enzyme reactions, aldosterone for CYP11B2 or cortisol for CYP11B1, were measured by LC-MS. Assays were run under conditions of less than 20% substrate turnover. Inhibitor IC50s were generated by determining the product formation in the absence or presence of inhibitor at various concentrations. In the absence of the test compound, the product formed (Pt) in each data set was defined as 100% activity. In the absence of enzyme, the product formed (Pb) in each data set was defined as 0% activity. The percent activity in the presence of each inhibitor was calculated according to the following equation: % activity=(P−Pb)/(Pt−Pb), where P=the product formed in the presence of the inhibitor.

[2] = molecular target: T2, recombinant human CYP11B1 (Homo sapiens, UniProt P15538); test: CYP11B1 enzyme assay, enzyme enriched microsomes from V79-4 cells, cortisol by LC-MS; assay type: biochemical; details: IC50 ranges; run at Km of 11-deoxycortisol; read-out: hCYP11B1 IC50
T2 construct: made in house; host or cells: V79-4 cells (enzyme enriched microsomal fraction of cell lysates)
T2 sequence (P15538 25-503): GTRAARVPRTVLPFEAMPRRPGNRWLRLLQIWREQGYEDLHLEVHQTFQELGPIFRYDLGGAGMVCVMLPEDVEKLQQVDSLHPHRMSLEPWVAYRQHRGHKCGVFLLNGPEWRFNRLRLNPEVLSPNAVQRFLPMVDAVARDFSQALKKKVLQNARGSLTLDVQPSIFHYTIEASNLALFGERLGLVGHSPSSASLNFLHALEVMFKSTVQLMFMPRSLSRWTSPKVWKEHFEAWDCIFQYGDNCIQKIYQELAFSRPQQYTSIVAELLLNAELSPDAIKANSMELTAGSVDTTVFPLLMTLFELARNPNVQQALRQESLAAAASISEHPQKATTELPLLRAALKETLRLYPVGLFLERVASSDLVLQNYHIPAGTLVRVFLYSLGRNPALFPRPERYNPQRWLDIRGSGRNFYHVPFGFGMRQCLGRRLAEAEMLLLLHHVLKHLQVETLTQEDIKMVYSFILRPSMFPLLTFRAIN
Procedure: as §1

Row | Structure (SMILES) | IC50 [1] [µM] | IC50 [2] [µM]
1 | CNc1ncncc1-c1nc2ccc(C#N)cc2n1C1CC1 [Example 39, 1-Cyclopropyl-2-(4-(methylamino)pyrimidin-5-yl)-1H-benzo[d]imidazole-6-carbonitrile] | 0.001 to 0.1 | 0.1 to 1
2 | CCCc1ncncc1-c1nc2ccc(C#N)cc2n1C1CC1 [Example 40, 1-Cyclopropyl-2-(4-propylpyrimidin-5-yl)-1H-benzo[d]imidazole-6-carbonitrile] | 0.001 to 0.1 | 0.1 to 1
3 | CCn1c(-c2cncnc2C(C)C)nc2ccc(C#N)cc21 [Example 41, 1-Ethyl-2-(4-isopropylpyrimidin-5-yl)-1H-benzo[d]imidazole-6-carbonitrile] | 0.001 to 0.1 | 1 to 10
4 | FC(F)(F)Oc1ccc2nc(-c3cncnc3)n(C3CC3)c2c1 [Example 42, 1-Cyclopropyl-2-(pyrimidin-5-yl)-6-(trifluoromethoxy)-1H-benzo[d]imidazole] | 0.1 to 1 | 1 to 10
5 | N#Cc1ccc2nc(-c3cncnc3)n(CC(F)(F)F)c2c1 [Example 43, 2-(Pyrimidin-5-yl)-1-(2,2,2-trifluoroethyl)-1H-benzo[d]imidazole-6-carbonitrile] | 1 to 10 | > 10
6 | CCc1ncncc1-c1nc2cc(F)c(F)cc2n1C1CC1 [Example 45, 1-Cyclopropyl-2-(4-ethylpyrimidin-5-yl)-5,6-difluoro-1H-benzo[d]imidazole] | 0.001 to 0.1 | 1 to 10
7 | N#Cc1ncncc1-c1nc2cc(F)c(F)cc2n1C1CC1 [Example 46, 5-(1-Cyclopropyl-5,6-difluoro-1H-benzo[d]imidazol-2-yl) pyrimidine-4-carbonitrile] | 0.001 to 0.1 | 1 to 10
8 | CCn1c(-c2cncnc2)cc2ccc(Cl)cc21 [Example 47, 6-Chloro-1-ethyl-2-(pyrimidin-5-yl)-1H-indole] | 0.001 to 0.1 | 0.1 to 1
9 | Cc1ncncc1-c1nc2ccc(Cl)nc2n1C1CC1 [Example 48, 5-Chloro-3-cyclopropyl-2-(4-methylpyrimidin-5-yl)-3H-imidazo[4,5-b]pyridine] | 0.001 to 0.1 | 1 to 10
10 | Cc1ncncc1-c1nc2ccc(C#N)cc2n1CC(F)(F)F [Example 49, 2-(4-Methylpyrimidin-5-yl)-1-(2,2,2-trifluoroethyl)-1H-benzo[d]imidazole-6-carbonitrile] | 0.1 to 1 | > 10
11 | FC(F)c1ncncc1-c1nc2ccc(Cl)cc2n1C1CC1 [Example 50, 6-Chloro-1-cyclopropyl-2-(4-(difluoromethyl)pyrimidin-5-yl)-1H-benzo[d]imidazole] | 0.001 to 0.1 | 1 to 10
12 | CCn1c(-c2cncnc2C(F)F)nc2ccc(C#N)cc21 [Example 51, 2-(4-(Difluoromethyl)pyrimidin-5-yl)-1-ethyl-1H-benzo[d]imidazole-6-carbonitrile] | 0.001 to 0.1 | > 10
13 | Cc1ncncc1-c1nc2ccc(C#N)nc2n1C1CC1 [Example 52, 3-Cyclopropyl-2-(4-methylpyrimidin-5-yl)-3H-imidazo[4,5-b]pyridine-5-carbonitrile] | 0.001 to 0.1 | 1 to 10
14 | CCn1c(-c2cncnc2C(F)(F)F)nc2ccc(C#N)cc21 [Example 53, 2-(4-(trifluoromethyl)pyrimidin-5-yl)-1-ethyl-1H-benzo[d]imidazole-6-carbonitrile] | 0.001 to 0.1 | 1 to 10
15 | N#Cc1ccc2nc(-c3cncnc3C(F)F)n(C3CC3)c2c1 [Example 54, 1-Cyclopropyl-2-(4-(difluoromethyl)pyrimidin-5-yl)-1H-benzo[d]imidazole-6-carbonitrile] | 0.001 to 0.1 | 1 to 10
16 | Cc1ncncc1-c1nc2cnc(Cl)cc2n1C1CC1 [Example 55, 6-Chloro-1-cyclopropyl-2-(4-methylpyrimidin-5-yl)-1H-imidazo[4,5-c]pyridine] | 0.1 to 1 | > 10
17 | Cc1ncncc1-c1nc2cnc(C#N)cc2n1C1CC1 [Example 56, 1-Cyclopropyl-2-(4-methylpyrimidin-5-yl)-1H-imidazo[4,5-c]pyridine-6-carbonitrile] | 0.1 to 1 | > 10

Row | Structure (SMILES) | IC50 [1] [µM] | IC50 [2] [µM]
18 | c1ncc(-c2nc3c(n2C2CC2)CCCC3)cn1 [Example 57, 1-Cyclopropyl-2-(pyrimidin-5-yl)-4,5,67-tetrahydro-1H-benzo[d]imidazole] | 1 to 10 | > 10
19 | COc1ccc2nc(-c3cncnc3C)n(C3CC3)c2n1 [Example 58, 3-Cyclopropyl-5-methoxy-2-(4-methylpyrimidin-5-yl)-3H-imidazo[4,5-b]pyridine] | 0.1 to 1 | > 10
20 | CC(=O)NCCc1ncncc1-c1nc2cc(F)c(F)cc2n1C1CC1 [Example 59, N-(2-(5-(1-Cyclopropyl-5,6-difluoro-1H-benzo[d]imidazol-2-yl)pyrimidin-4-yl)ethyl)acetamide] | 1 to 10 | > 10
21 | N#Cc1ccc2nc(-c3cncnc3C(F)(F)F)n(C3CC3)c2c1 [Example 60, 1-Cyclopropyl-2-(4-(trifluoromethyl)pyrimidin-5-yl)-1H-benzo[d]imidazole-6-carbonitrile] | 0.001 to 0.1 | 1 to 10
22 | FC(F)(F)c1ncncc1-c1nc2ccc(Cl)nc2n1C1CC1 [Example 61, 5-Chloro-3-cyclopropyl-2-(4-(trifluoromethyl)pyrimidin-5-yl)-3H-imidazo[4,5-b]pyridine] | 0.001 to 0.1 | 1 to 10
23 | FC(F)c1ncncc1-c1nc2ccc(Cl)nc2n1C1CC1 [Example 62, 5-Chloro-3-cyclopropyl-2-(4-(difluoromethyl)pyrimidin-5-yl)-3H-imidazo[4,5-b]pyridine] | 0.1 to 1 | 1 to 10
24 | N#Cc1ccc2nc(-c3cncnc3C(F)F)n(C3CC3)c2n1 [Example 63, 3-Cyclopropyl-2-(4-(difluoromethyl)pyrimidin-5-yl)-3H-imidazo[4,5-b]pyridine-5-carbonitrile] | 0.001 to 0.1 | 1 to 10
25 | CC(F)(F)c1ncncc1-c1nc2ccc(C#N)cc2n1C1CC1 [Example 64, 1-Cyclopropyl-2-(4-(1,1-difluoroethyl)pyrimidin-5-yl)-1H-benzo[d]imidazole-6-carbonitrile] | 0.001 to 0.1 | 1 to 10
26 | N#Cc1ccc2nc(-c3cncnc3C(F)(F)F)n(C3CC3)c2n1 [Example 65, 3-Cyclopropyl-2-(4-(trifluoromethyl)pyrimidin-5-yl)-3H-imidazo[4,5-b]pyridine-5-carbonitrile] | 0.001 to 0.1 | 1 to 10
27 | FC(F)(F)c1ncncc1-c1nc2cc(Cl)cnc2n1C1CC1 [Example 66, 6-Chloro-3-cyclopropyl-2-(4-(trifluoromethyl)pyrimidin-5-yl)-3H-imidazo[4,5-b]pyridine] | 1 to 10 | > 10
28 | CCn1c(-c2cncnc2C(F)(F)F)nc2cc(F)c(F)cc21 [Example 67, 1-Ethyl-5,6-difluoro-2-(4-(trifluoromethyl)pyrimidin-5-yl)-1H-benzo[d]imidazole] | 0.1 to 1 | > 10
29 | CCn1c(-c2cncnc2C(F)(F)F)nc2ccc(Cl)nc21 [Example 68, 5-Chloro-3-ethyl-2-(4-(trifluoromethyl)pyrimidin-5-yl)-3H-imidazo[4,5-b]pyridine] | 0.1 to 1 | > 10
30 | CCn1c(-c2cncnc2C(F)(F)F)nc2ccc(C#N)nc21 [Example 69, 3-ethyl-2-(4-(trifluoromethyl)pyrimidin-5-yl)-3H-imidazo[4,5-b]pyridine-5-carbonitrile] | 0.1 to 1 | > 10
31 | O=C(O)c1ccc2nc(-c3cncnc3C(F)(F)F)n(C3CC3)c2c1 [Example 70, 1-Cyclopropyl-2-(4-(trifluoromethyl)pyrimidin-5-yl)-1H-benzo[d]imidazole-6-carboxylic acid] | > 10 | > 10
32 | CC(F)(F)c1ncncc1-c1nc2cc(F)c(F)cc2n1C1CC1 [Example 71, 1-Cyclopropyl-2-(4-(1,1-difluoroethyl)pyrimidin-5-yl)-5,6-difluoro-1H-benzo[d]imidazole] | 0.001 to 0.1 | 1 to 10
33 | Fc1cc2nc(-c3cncnc3C3CC3)n(C3CC3)c2cc1F [Example 72, 1-Cyclopropyl-2-(4-cyclopropylpyrimidin-5-yl)-5,6-difluoro-1H-benzo[d]imidazole] | 0.1 to 1 | > 10
34 | CC(C)(O)c1ncncc1-c1nc2ccc(C#N)cc2n1C1CC1 [Example 73, 1-Cyclopropyl-2-(4-(2-hydroxypropan-2-yl)pyrimidin-5-yl)-1H-benzo[d]imidazole-6-carbonitrile] | 0.1 to 1 | > 10
